Among the test systems are HL-60(TB) leukemia; RPMI-8226 leukemia; SK-MEL-2 melanoma; OVCAR-8 ovarian; PC-3 prostate; HT29 colon; NCI-H460 lung; OVCAR-3 ovarian; SF-295 CNS; IGROV1 ovarian.
Assay in all cases: NCI anticancer screen, dose series, 48 h

Structures are written as SMILES. Values joined by “and” are separate entries in the source; they are usually repeats but may differ in a detail not shown here. Equal entries are not always repeated.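 These data come from cells grown in 96-well plates and exposed to compound for 48 hours at five concentrations. GI50 marks 50% less growth. TGI denotes the concentration required for complete inhibition of growth.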

Our source for the TGI and GI50 values is PubChem BioAssay (NCI).

As for `COc1c2c(cc3c1OCO3)[C@]13C=C[C@H](OC)C[C@H]1N(C2)CC3O` (stereo partly drawn), the TGI in the experiment on HL-60(TB) leukemia, in the experiment on RPMI-8226 leukemia, in the experiment with SK-MEL-2 melanoma, with OVCAR-8 ovarian, with PC-3 prostate and in the experiment on HT29 colon was more than 100 µM each time. For the same compound, the TGI in the experiment with NCI-H460 lung, in the experiment with OVCAR-3 ovarian, with SF-295 CNS and in the experiment with IGROV1 ovarian was more than 100 µM each time.

Regarding `Nc1nc(Nc2cccnc2)sc1C(=O)c1ccccc1F`, the GI50 in the experiment on HL-60(TB) leukemia is 2.09 µM; in the experiment with RPMI-8226 leukemia, 3.06 µM; with SK-MEL-2 melanoma, 2.92 µM; with OVCAR-8 ovarian, 3.9 µM; in the experiment with PC-3 prostate it was 3.29 µM; in the experiment on HT29 colon it was 2.96 µM. For the same compound, the GI50 was 2.57 µM in the experiment with NCI-H460 lung, 2.82 µM in the experiment with OVCAR-3 ovarian, 2.69 µM in the experiment with SF-295 CNS and 2.17 µM with IGROV1 ovarian. Further, the TGI was 4.81 µM in the experiment on HL-60(TB) leukemia; 7.35 µM in the experiment on RPMI-8226 leukemia; 9.79 µM in the experiment with SK-MEL-2 melanoma; more than 100 µM with OVCAR-8 ovarian; more than 100 µM in the experiment with PC-3 prostate; 31.2 µM in the experiment with HT29 colon. For the same compound, the TGI with NCI-H460 lung is 17.9 µM; with OVCAR-3 ovarian, more than 28.1 µM; in the experiment on SF-295 CNS, more than 26.9 µM; with IGROV1 ovarian, more than 29.1 µM.

With `CC(=O)O[C@H]1CCC2[C@@H]3CC[C@]4(C)CC(=O)C=C[C@]4(C)C3CC[C@@]21C` (stereo partly drawn), the TGI in the experiment on HL-60(TB) leukemia worked out at 66.7 µM; in the experiment with RPMI-8226 leukemia, 61.5 µM; in the experiment on SK-MEL-2 melanoma, 38.7 µM; in the experiment on OVCAR-8 ovarian it was 34.2 µM; in the experiment on PC-3 prostate it was 77.1 µM; in the experiment on HT29 colon, 32.8 µM. In addition, the TGI is 32 µM in the experiment on NCI-H460 lung, 31.6 µM with OVCAR-3 ovarian, more than 100 µM with SF-295 CNS and 58.3 µM in the experiment with IGROV1 ovarian.

Take `CC1=CC(=O)C=CC1=O`: the GI50 in the experiment with HL-60(TB) leukemia is 2.37 µM and 3.51 µM; in the experiment on RPMI-8226 leukemia, 5.11 µM and 3.32 µM; with SK-MEL-2 melanoma, 50.7 µM and 23.8 µM; in the experiment on OVCAR-8 ovarian, 17.7 µM; with PC-3 prostate, 15.7 µM; with HT29 colon it was 16.4 µM and 26.9 µM. The GI50 with NCI-H460 lung was 32.8 µM and 22.3 µM; in the experiment on OVCAR-3 ovarian, 3.96 µM; in the experiment on SF-295 CNS it was 50.3 µM and 22.7 µM; in the experiment with IGROV1 ovarian it was 18.1 µM and 18.2 µM. The TGI with RPMI-8226 leukemia was 39.9 µM and 102 µM; in the experiment on SK-MEL-2 melanoma, 66.3 µM; in the experiment on OVCAR-8 ovarian it was 41.4 µM; in the experiment with PC-3 prostate, 39.4 µM; in the experiment on HT29 colon it was 40.9 µM and 69.6 µM; in the experiment on NCI-H460 lung, 53.4 µM. Also, the TGI in the experiment on OVCAR-3 ovarian was determined as 13.3 µM; in the experiment with SF-295 CNS, 64.3 µM; in the experiment on IGROV1 ovarian, 43 µM.

Turning to `Cc1cc(C(=O)Nc2ccc3cc(CN4CCOCC4)ccc3n2)c(C)n1-c1ccccc1`, the GI50 in the experiment on HL-60(TB) leukemia was 1.71 µM; in the experiment on RPMI-8226 leukemia it was 0.822 µM; with SK-MEL-2 melanoma, 2.44 µM; in the experiment on OVCAR-8 ovarian it was 1.21 µM; with PC-3 prostate it was 1.34 µM; with HT29 colon it was 2.71 µM. The GI50 in the experiment with NCI-H460 lung is 2.51 µM; with OVCAR-3 ovarian, 1.58 µM; in the experiment with SF-295 CNS it was 1.99 µM; in the experiment with IGROV1 ovarian, 3.92 µM. The TGI with HL-60(TB) leukemia was 5.06 µM; in the experiment with RPMI-8226 leukemia, 3.73 µM; in the experiment on SK-MEL-2 melanoma, 5.89 µM; with OVCAR-8 ovarian, 5.43 µM; in the experiment with PC-3 prostate, 6.69 µM; in the experiment on HT29 colon, more than 100 µM. Further, the TGI is more than 52.1 µM in the experiment on NCI-H460 lung, 6.72 µM in the experiment on OVCAR-3 ovarian, 12.5 µM with SF-295 CNS and 44.8 µM with IGROV1 ovarian.

As for `O=C1/C(=C(/c2ccccc2)N2CCOCC2)Cc2ccccc21`, the GI50 with HL-60(TB) leukemia was 0.235 µM; in the experiment with RPMI-8226 leukemia, 0.522 µM; in the experiment with SK-MEL-2 melanoma, 2.03 µM; with OVCAR-8 ovarian it was 3.9 µM; with PC-3 prostate, 1.64 µM; with HT29 colon, 1.83 µM. Besides, the GI50 in the experiment on NCI-H460 lung is 4.52 µM; in the experiment with OVCAR-3 ovarian, 0.479 µM; with SF-295 CNS it was 12.2 µM; in the experiment on IGROV1 ovarian it was 1.46 µM. Also, the TGI was determined as 0.485 µM in the experiment with HL-60(TB) leukemia; 6.34 µM in the experiment with SK-MEL-2 melanoma; 13.7 µM in the experiment with OVCAR-8 ovarian; 6.15 µM in the experiment with PC-3 prostate; 5.28 µM in the experiment with HT29 colon; 18.6 µM in the experiment on NCI-H460 lung. Further, the TGI in the experiment on OVCAR-3 ovarian worked out at 1.5 µM; with SF-295 CNS it was 28 µM; in the experiment on IGROV1 ovarian, 3.61 µM.

Take `N#Cc1cc(-c2cc3ccccc3o2)oc1N`: the GI50 was 3.85 µM with HL-60(TB) leukemia; 1.46 µM in the experiment on RPMI-8226 leukemia; 1.29 µM with SK-MEL-2 melanoma; 4.32 µM with OVCAR-8 ovarian; 2.73 µM in the experiment with PC-3 prostate; 3.35 µM in the experiment on HT29 colon. The GI50 with NCI-H460 lung was 3.03 µM; in the experiment on OVCAR-3 ovarian it was 1.98 µM; in the experiment with SF-295 CNS it was 2.22 µM; in the experiment with IGROV1 ovarian it was 1.76 µM. The TGI was more than 100 µM in the experiment on HL-60(TB) leukemia; 5.04 µM with RPMI-8226 leukemia; 4.49 µM in the experiment on SK-MEL-2 melanoma; more than 100 µM with OVCAR-8 ovarian; 6.85 µM in the experiment with PC-3 prostate; 11.3 µM with HT29 colon. The TGI with NCI-H460 lung came to 10.6 µM; with OVCAR-3 ovarian, 6.38 µM; in the experiment on SF-295 CNS it was 4.97 µM; in the experiment with IGROV1 ovarian it was 6.35 µM.

Take `CCNCCNc1cc(-c2ccc(C(F)(F)F)cc2)c(C#N)c2nc3ccccc3n12`: the GI50 is 0.203 µM in the experiment with HL-60(TB) leukemia; 1.36 µM in the experiment on RPMI-8226 leukemia; 2.03 µM in the experiment on SK-MEL-2 melanoma; 1.75 µM in the experiment with OVCAR-8 ovarian; 1.54 µM in the experiment with PC-3 prostate; 0.365 µM in the experiment on HT29 colon. Further, the GI50 in the experiment on NCI-H460 lung was 1.22 µM; in the experiment on OVCAR-3 ovarian, 0.306 µM; with SF-295 CNS, 1.83 µM; in the experiment with IGROV1 ovarian, 1.45 µM. For the same compound, the TGI was determined as 0.468 µM in the experiment with HL-60(TB) leukemia; 3.61 µM in the experiment on RPMI-8226 leukemia; 3.87 µM in the experiment with SK-MEL-2 melanoma; 3.6 µM in the experiment with OVCAR-8 ovarian; 2.95 µM in the experiment on PC-3 prostate; 1.29 µM with HT29 colon. The TGI in the experiment with NCI-H460 lung was found to be 2.73 µM; in the experiment with OVCAR-3 ovarian, 1 µM; in the experiment on SF-295 CNS, 3.34 µM; with IGROV1 ovarian, 2.99 µM.
